According to the supplement of paper PMC10307832:

Legend:
Test in all cases: relative viability (nuclei count vs DMSO), 5 days (fraction); higher = more cells survive
[1] = compound: C1CC(C2=C(C1)C3=C(N2)C=CC(=C3)Cl)C(=O)N [Selisistat] + NC(=O)Nc1cc(-c2cccc(F)c2)sc1C(=O)N[C@H]1CCCNC1 [AZD7762] (partner 0.2 µM)
In short: (§1)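 Lung cancer cell lines in 1536-well plates were dosed by pin tool the day after seeding, either with one drug alone or with a fixed anchor-drug dose plus five library-drug doses (not always all listed) in √10 steps. After 5 days, cells were fixed and their nuclei stained in one step (final 0.05% Triton X-100, 1% formaldehyde, 1 ug/ml Hoechst), then counted on 4× images. Relative viability is the nuclei count in treated wells divided by that in vehicle wells. Values are medians of duplicate plates.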

[2] = compound: C1CC(C2=C(C1)C3=C(N2)C=CC(=C3)Cl)C(=O)N [Selisistat] + Cc1cc(Nc2cc(N3CCN(C)CC3)nc(Sc3ccc(NC(=O)C4CC4)cc3)n2)n[nH]1 [Tozasertib] (partner 0.1 µM)
In short: as §1

[3] = compound: c1ccc2c(CCNc3ccc(Nc4ccncc4)cc3)c[nH]c2c1 [Serdemetan] + N=C(N)NC(=N)NCCc1ccccc1 [Phenformin] (partner 250 µM)
In short: as §1

[4] = compound: C1CC(C2=C(C1)C3=C(N2)C=CC(=C3)Cl)C(=O)N [Selisistat] + Nc1nc2[nH]cc(CCc3ccc(C(=O)N[C@@H](CCC(=O)O)C(=O)O)cc3)c2c(=O)[nH]1 [Pemetrexed] (partner 0.2 µM)
In short: as §1

Cell Line | relative viability ([1]; first compound 0.4 µM) | relative viability ([1]; first compound 1.265 µM) | relative viability ([1]; first compound 4 µM) | relative viability ([1]; first compound 12.65 µM) | relative viability ([1]; first compound 40 µM) | relative viability ([2]; first compound 0.4 µM) | relative viability ([2]; first compound 1.265 µM) | relative viability ([2]; first compound 12.65 µM) | relative viability ([2]; first compound 40 µM) | relative viability ([3]; first compound 0.04 µM) | relative viability ([3]; first compound 0.1265 µM) | relative viability ([3]; first compound 0.4 µM) | relative viability ([3]; first compound 1.265 µM) | relative viability ([3]; first compound 4 µM) | relative viability ([4]; first compound 0.4 µM) | relative viability ([4]; first compound 1.265 µM) | relative viability ([4]; first compound 4 µM) | relative viability ([4]; first compound 12.65 µM) | relative viability ([4]; first compound 40 µM) | relative viability ([2]; first compound 4 µM)
NCI-H727 | 0.675 | 0.563 | 0.369 | 0.615 | 0.527 | 0.681 | 0.518 | 0.483 | 0.69 | 0.592 | 0.558 | 0.642 | 0.288 | 0.418 | – | – | – | – | – | –
NCI-H1563 | – | – | – | – | – | – | – | – | – | 0.689 | 0.591 | 0.567 | 0.586 | 0.589 | 0.831 | 0.857 | 0.713 | 0.664 | 0.611 | –
NCI-H1623 | – | – | – | – | – | 0.445 | 0.433 | 0.407 | 0.405 | 0.618 | 0.617 | 0.37 | 0.476 | 0.739 | – | – | – | – | – | 0.355
NCI-H1648 | 0.736 | 0.64 | – | 0.731 | 0.768 | 0.511 | 0.513 | 0.395 | 0.64 | – | – | – | – | – | 0.562 | 0.584 | – | 0.599 | 0.743 | 0.609
NCI-H1650 | – | – | – | – | – | 0.355 | 0.301 | 0.34 | 0.334 | 0.424 | 0.462 | 0.268 | 0.391 | 0.285 | 0.359 | 0.348 | 0.354 | 0.397 | 0.326 | 0.404
NCI-H1703 | 0.116 | 0.114 | – | 0.139 | 0.136 | – | – | – | – | – | – | – | – | – | – | – | – | – | – | –
NCI-H1792 | 0.654 | 0.577 | – | 0.512 | 0.713 | – | – | – | – | 0.268 | 0.316 | 0.283 | 0.127 | 0.198 | 0.696 | 0.633 | – | 0.913 | 0.755 | –
NCI-H2009 | – | – | – | – | – | 0.743 | 0.734 | 0.694 | 0.744 | 0.451 | 0.472 | 0.431 | 0.307 | 0.366 | 1.13 | 1.07 | 1.06 | 1.04 | 1.04 | 0.765
NCI-H2023 | – | – | – | – | – | 0.417 | 0.34 | 0.263 | 0.307 | 0.395 | 0.413 | 0.351 | 0.254 | 0.205 | 0.239 | 0.259 | 0.258 | 0.203 | 0.236 | 0.286
NCI-H2228 | – | – | – | – | – | 0.315 | 0.223 | 0.315 | 0.217 | 0.38 | 0.269 | 0.362 | 0.238 | 0.21 | 0.32 | 0.308 | 0.344 | 0.325 | 0.408 | 0.29
SK-LU-1 | – | – | – | – | – | 0.365 | 0.329 | 0.32 | 0.314 | 0.484 | 0.573 | 0.538 | – | 0.343 | 0.985 | 0.981 | 1.01 | 0.967 | 1.03 | 0.302
SK-MES-1 | – | – | – | – | – | 0.977 | 0.869 | 0.829 | 0.948 | 0.634 | 0.646 | 0.605 | 0.576 | 0.456 | 1.01 | 0.957 | 0.917 | 0.828 | 1.01 | 0.954
SW 1573 | – | – | – | – | – | 0.206 | 0.175 | 0.206 | 0.184 | 0.36 | 0.334 | 0.289 | 0.211 | 0.245 | 0.798 | 0.774 | – | 0.815 | 0.776 | 0.175
